From patent US10421754B2, “Quinazoline derivative” (CSPC ZHONGQI PHARMACEUTICAL TECHNOLOGY (SHIJIAZHUANG) CO., …, priority 2014, dated 2019)

Assays:
HCC827 = test: In vitro cell experiment (MTT), HCC827; type: cell-based; conditions: 72 h, human non-small cell lung carcinoma (EGFR1 19 exon mutation)
Outline: (§1)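 24 h attachment; compound dilutions 72 h, 37° C, triplicate. MTT 0.5 mg/mL final, 4 h; DMSO solubilization; OD 550 nm.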

A431 = test: In vitro cell experiment (MTT), A431; type: cell-based; conditions: A-431, 72 h, human epidermoid carcinoma (EGFR1 overexpressing)
Outline: as §1

H292 = test: In vitro cell experiment (MTT), H292; type: cell-based; conditions: NCI-H292, 72 h, human lung carcinoma cells (EGFR1 overexpressing)
Outline: as §1

PC-9 = test: In vitro cell experiment (MTT), PC-9; type: cell-based; conditions: 72 h, human non-small-cell lung carcinoma cells (EGFR1 19 exon mutation)
Outline: as §1

A375 = test: In vitro cell experiment (MTT), A375; type: cell-based; conditions: A-375, 72 h, human melanoma cells (KDR expressing)
Protocol: (§2) Cells in logarithmic growth phase were seeded at a certain density in a 96-well plate (200 μL/well). The cells were allowed to grow for 24 h and subsequently treated with different concentrations of drugs (including a blank group and a control group) and incubated for 72 h at 37° C. Each concentration in a given experiment was tested in triplicate. After 72 h of exposure, 20 μL of the MTT labeling reagent was added to the medium (the final concentration of MTT was 0.5 mg/mL), and the cells were incubated for additional 4 h at 37° C. Following this process, 180 μL of the medium was removed and 130 μL of DMSO was added to each well, or the medium was completely removed and 150 μL of DMSO was added to each well. Then the plate was shaken and mixed in a micro-oscillator. Finally the optical density (OD) of each sample was measured in a micro-plate reader at 550 nm. Cell inhibition rate was calculated according to the following formula: […]
(§3) According to cell inhibition rates, IC50 was calculated by LOGIT method. The experiments were repeated twice and the data was expressed as means±SD.

HT-29 = test: In vitro cell experiment (MTT), HT-29; type: cell-based; conditions: 72 h, human colon carcinoma cells (expressing both c-KIT and PDGFR)
Outline: as §1

TT = test: In vitro cell experiment (MTT), TT; type: cell-based; conditions: 72 h, human thyroid carcinoma cells (RET C634W mutation)
Protocol: as §2, §3

HCT116 = test: In vitro cell experiment (MTT), HCT116; type: cell-based; conditions: HCT-116, 72 h, human colon carcinoma cells
Outline: as §1

SK-OV-3 = test: In vitro cell experiment (MTT), SK-OV-3; type: cell-based; conditions: 72 h, human ovarian carcinoma cells (EGFR2 overexpressing)
Outline: as §1

A549 = test: In vitro cell experiment (MTT), A549; type: cell-based; conditions: 72 h, human non-small-cell lung carcinoma cells (EGFR1 wildtype)
Outline: as §1

3T3swiss = test: In vitro cell experiment (MTT), 3T3swiss; type: cell-based; conditions: Fibroblast, 72 h, mouse fibroblasts (PDGFR overexpressing)
Outline: as §1

HUVEC = test: In vitro cell experiment (MTT), HUVEC; type: cell-based; conditions: 72 h, human umbilical vein endothelial cell (KDR overexpressing)
Outline: as §1

Bel-7402 = test: In vitro cell experiment (MTT), Bel-7402; type: cell-based; conditions: 72 h, human hepatoma carcinoma cells
Outline: as §1

SGC7901 = test: In vitro cell experiment (MTT), SGC7901; type: cell-based; conditions: SGC-7901, 72 h, human gastric carcinoma cells
Protocol: as §2, §3

CFPAC-1 = test: In vitro cell experiment (MTT), CFPAC-1; type: cell-based; conditions: 72 h, human pancreatic carcinoma cells
Protocol: as §2, §3

A498 = test: In vitro cell experiment (MTT), A498; type: cell-based; conditions: 72 h, human renal carcinoma cells
Protocol: as §2, §3

Eca109 = test: In vitro cell experiment (MTT), Eca109; type: cell-based; conditions: ECa-109, 72 h, human esophageal carcinoma cells
Protocol: as §2, §3

RET = RET (Homo sapiens, UniProt P07949); test: In vitro enzyme experiment (ELISA), RET; type: biochemical; conditions: Poly (Glu, Tyr)4:1 substrate, 5 μM ATP
Protocol: RET: A receptor involved in thyroid cancer
(§4) ELISA: The enzyme plate was coated by enzyme reaction substrate (Poly (Glu, Tyr)4:1) at a density of 20 μg/ml. Then the enzyme, the sample and 5 μM ATP were mixed in the well to react. After the reaction, the substrate phosphorylation was detected by anti-phosphotyrosine monoclonal antibody (4G10). In the next step, the goat-anti-mouse IgG linking with horse radish peroxidase (HRP) and tetramethylbenzidine (TMB) were added sequentially in the well to evaluate the level of substrate phosphorylation by the degree of color depth. In the experiment, a blank group without tyrosine kinase and a control group with the corresponding concentration of DMSO were established. Finally, 50 μL/well of H2SO4 at a concentration of 0.18M was added in each well to stop the reaction. The optical density (OD) of each sample was measured in a micro-plate reader at 450 nm.
(§5) The relative inhibition rate of the compound against tyrosine kinase protein was determined.
(§6) According to the inhibition rates at different concentrations, IC50 was calculated by LOGIT method. The experiments were repeated three times, and the average of three IC50 values was the final index to evaluate the ability of inhibition.

KDR = KDR (Homo sapiens, UniProt P35968); test: In vitro enzyme experiment (ELISA), KDR; type: biochemical; conditions: Poly (Glu, Tyr)4:1 substrate, 5 μM ATP
Protocol: KDR: Human vascular endothelial growth factor receptor 2
as §4, §5, §6

FLT-1 = FLT-1 (Homo sapiens, UniProt P17948); test: In vitro enzyme experiment (ELISA), FLT-1; type: biochemical; conditions: Poly (Glu, Tyr)4:1 substrate, 5 μM ATP
Protocol: FLT-1: Human vascular endothelial growth factor receptor 1
as §4, §5, §6

FGFR-1 = FGFR-1 (Homo sapiens, UniProt P11362); test: In vitro enzyme experiment (ELISA), FGFR-1; type: biochemical; conditions: Poly (Glu, Tyr)4:1 substrate, 5 μM ATP
Protocol: FGFR-1: Fibroblast growth factor receptor 1
as §4, §5, §6

EGFR = EGFR (Homo sapiens, UniProt P00533); test: In vitro enzyme experiment (ELISA), EGFR; type: biochemical; conditions: Poly (Glu, Tyr)4:1 substrate, 5 μM ATP
Protocol: EGFR: Human epidermal growth factor receptor 1
as §4, §5, §6

PDGFRβ = PDGFRβ (Homo sapiens, UniProt P09619); test: In vitro enzyme experiment (ELISA), PDGFRβ; type: biochemical; conditions: Poly (Glu, Tyr)4:1 substrate, 5 μM ATP
Protocol: PDGFRβ: Platelet-derived growth factor receptor β
as §4, §5, §6

BTK = BTK (Homo sapiens, UniProt Q06187); test: In vitro enzyme experiment (ELISA), BTK; type: biochemical; conditions: Poly (Glu, Tyr)4:1 substrate, 5 μM ATP
Protocol: BTK: Bruton tyrosine kinase
as §4, §5, §6

AXL = AXL (Homo sapiens, UniProt P30530); test: In vitro enzyme experiment (ELISA), AXL; type: biochemical; conditions: Poly (Glu, Tyr)4:1 substrate, 5 μM ATP
Protocol: as §4, with “AXL: Anaplastic lymphoma kinase Methods: ELISA:” for “ELISA:”, “nm. The relative inhibition rate of the compound against tyrosine kinase protein was determined. According to the inhibition rates at different concentrations, IC50 was calculated by LOGIT method. The experiments were repeated three times, and the average of three IC50 values was the final index to evaluate the ability of inhibition.” for “nm.”

[1] = Mouse maximum tolerated dose (MTD) experiment; conditions: in vivo, mice, oral, administered 7 days then observed 7 days
Outline: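 Healthy mice, weight-stratified and randomized, three per dose group, received compound orally by body weight at 1000, 500, 250, 125, 62.5 or 31.25 mg/kg for 7 days. Dosing was followed by 7 days of observation without compound.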

KDR, sequence (P35968 20-1356): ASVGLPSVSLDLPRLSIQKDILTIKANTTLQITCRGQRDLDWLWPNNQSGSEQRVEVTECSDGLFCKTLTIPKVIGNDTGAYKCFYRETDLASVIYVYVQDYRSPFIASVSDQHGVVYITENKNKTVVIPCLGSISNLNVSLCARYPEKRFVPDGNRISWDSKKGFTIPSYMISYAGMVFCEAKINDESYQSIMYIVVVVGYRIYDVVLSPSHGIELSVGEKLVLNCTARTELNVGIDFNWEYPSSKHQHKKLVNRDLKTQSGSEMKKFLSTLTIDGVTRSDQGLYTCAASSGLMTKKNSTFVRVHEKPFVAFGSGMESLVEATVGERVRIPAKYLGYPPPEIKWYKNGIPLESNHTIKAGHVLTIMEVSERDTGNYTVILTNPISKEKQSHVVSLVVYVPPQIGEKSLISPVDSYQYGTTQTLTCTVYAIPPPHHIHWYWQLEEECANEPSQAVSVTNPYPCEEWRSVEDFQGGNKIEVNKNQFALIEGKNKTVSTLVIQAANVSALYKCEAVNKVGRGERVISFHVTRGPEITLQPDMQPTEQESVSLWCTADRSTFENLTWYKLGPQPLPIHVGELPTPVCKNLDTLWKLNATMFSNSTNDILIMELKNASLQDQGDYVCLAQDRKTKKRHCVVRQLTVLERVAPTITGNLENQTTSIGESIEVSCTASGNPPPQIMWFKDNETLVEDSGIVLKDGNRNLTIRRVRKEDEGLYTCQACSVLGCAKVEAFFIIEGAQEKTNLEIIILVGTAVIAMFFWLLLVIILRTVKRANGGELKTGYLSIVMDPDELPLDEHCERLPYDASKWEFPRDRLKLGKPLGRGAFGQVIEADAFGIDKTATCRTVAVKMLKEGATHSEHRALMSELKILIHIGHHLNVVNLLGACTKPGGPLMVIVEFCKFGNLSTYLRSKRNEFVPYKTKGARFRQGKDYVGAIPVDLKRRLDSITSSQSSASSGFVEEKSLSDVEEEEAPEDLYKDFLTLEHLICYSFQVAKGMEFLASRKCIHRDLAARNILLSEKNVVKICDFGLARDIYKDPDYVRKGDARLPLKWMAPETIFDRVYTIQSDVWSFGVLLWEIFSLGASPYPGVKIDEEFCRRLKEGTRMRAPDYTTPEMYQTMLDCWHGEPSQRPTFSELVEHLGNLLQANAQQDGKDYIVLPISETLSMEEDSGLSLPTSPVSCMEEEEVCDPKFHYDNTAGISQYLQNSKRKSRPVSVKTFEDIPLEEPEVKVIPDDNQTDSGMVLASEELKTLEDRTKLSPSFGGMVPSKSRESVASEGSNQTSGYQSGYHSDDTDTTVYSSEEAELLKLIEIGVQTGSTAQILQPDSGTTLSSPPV
FGFR-1, sequence (P11362 22-822, species assumed): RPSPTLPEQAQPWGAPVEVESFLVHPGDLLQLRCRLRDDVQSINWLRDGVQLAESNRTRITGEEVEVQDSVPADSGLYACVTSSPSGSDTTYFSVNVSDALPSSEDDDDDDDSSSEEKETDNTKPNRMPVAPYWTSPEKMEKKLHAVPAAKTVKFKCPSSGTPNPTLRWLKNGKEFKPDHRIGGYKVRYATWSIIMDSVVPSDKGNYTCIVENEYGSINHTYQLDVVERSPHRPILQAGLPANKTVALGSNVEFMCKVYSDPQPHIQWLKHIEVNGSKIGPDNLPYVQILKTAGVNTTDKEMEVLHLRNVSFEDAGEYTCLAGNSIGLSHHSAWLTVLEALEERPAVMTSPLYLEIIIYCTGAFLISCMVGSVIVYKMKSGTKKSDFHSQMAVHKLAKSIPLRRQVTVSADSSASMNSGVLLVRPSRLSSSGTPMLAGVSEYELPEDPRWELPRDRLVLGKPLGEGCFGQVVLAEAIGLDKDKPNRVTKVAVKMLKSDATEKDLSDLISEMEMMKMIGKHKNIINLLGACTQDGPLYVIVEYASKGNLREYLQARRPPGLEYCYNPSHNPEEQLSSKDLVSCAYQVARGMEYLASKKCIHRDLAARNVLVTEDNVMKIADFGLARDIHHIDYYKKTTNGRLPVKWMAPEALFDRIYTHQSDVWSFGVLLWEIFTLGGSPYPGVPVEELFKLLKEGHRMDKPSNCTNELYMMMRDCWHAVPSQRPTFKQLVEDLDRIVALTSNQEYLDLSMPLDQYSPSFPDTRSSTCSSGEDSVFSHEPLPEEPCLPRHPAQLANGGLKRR
PDGFRβ, sequence (P09619 33-1106, species assumed): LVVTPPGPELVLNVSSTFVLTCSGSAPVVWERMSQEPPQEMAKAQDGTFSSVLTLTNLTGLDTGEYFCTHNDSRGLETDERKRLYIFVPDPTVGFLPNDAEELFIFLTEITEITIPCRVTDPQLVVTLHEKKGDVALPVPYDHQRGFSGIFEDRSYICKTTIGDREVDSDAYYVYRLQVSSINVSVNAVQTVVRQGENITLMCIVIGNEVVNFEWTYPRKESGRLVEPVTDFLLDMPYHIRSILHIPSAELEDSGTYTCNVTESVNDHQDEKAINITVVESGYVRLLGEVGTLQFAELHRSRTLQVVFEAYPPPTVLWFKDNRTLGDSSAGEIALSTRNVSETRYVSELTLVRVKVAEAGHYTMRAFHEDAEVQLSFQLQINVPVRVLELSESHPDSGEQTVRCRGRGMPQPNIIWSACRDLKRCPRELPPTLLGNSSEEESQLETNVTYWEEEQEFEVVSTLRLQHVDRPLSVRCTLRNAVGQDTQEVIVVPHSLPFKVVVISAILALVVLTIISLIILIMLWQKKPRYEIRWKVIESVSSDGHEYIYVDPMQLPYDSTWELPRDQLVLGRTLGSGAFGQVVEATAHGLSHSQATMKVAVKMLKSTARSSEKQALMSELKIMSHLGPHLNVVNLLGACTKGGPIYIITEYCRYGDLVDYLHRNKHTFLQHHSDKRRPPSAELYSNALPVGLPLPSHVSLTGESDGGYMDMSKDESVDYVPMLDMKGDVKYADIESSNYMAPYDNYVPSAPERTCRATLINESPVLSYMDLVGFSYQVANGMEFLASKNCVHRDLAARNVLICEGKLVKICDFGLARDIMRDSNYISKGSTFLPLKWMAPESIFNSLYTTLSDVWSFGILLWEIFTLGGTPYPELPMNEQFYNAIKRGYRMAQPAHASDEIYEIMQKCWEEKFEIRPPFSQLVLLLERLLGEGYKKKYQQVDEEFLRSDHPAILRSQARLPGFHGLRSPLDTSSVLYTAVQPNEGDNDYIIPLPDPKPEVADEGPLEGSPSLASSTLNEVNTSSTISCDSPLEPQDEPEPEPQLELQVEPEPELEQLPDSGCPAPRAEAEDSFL
RET, sequence (P07949 29-1114, species assumed): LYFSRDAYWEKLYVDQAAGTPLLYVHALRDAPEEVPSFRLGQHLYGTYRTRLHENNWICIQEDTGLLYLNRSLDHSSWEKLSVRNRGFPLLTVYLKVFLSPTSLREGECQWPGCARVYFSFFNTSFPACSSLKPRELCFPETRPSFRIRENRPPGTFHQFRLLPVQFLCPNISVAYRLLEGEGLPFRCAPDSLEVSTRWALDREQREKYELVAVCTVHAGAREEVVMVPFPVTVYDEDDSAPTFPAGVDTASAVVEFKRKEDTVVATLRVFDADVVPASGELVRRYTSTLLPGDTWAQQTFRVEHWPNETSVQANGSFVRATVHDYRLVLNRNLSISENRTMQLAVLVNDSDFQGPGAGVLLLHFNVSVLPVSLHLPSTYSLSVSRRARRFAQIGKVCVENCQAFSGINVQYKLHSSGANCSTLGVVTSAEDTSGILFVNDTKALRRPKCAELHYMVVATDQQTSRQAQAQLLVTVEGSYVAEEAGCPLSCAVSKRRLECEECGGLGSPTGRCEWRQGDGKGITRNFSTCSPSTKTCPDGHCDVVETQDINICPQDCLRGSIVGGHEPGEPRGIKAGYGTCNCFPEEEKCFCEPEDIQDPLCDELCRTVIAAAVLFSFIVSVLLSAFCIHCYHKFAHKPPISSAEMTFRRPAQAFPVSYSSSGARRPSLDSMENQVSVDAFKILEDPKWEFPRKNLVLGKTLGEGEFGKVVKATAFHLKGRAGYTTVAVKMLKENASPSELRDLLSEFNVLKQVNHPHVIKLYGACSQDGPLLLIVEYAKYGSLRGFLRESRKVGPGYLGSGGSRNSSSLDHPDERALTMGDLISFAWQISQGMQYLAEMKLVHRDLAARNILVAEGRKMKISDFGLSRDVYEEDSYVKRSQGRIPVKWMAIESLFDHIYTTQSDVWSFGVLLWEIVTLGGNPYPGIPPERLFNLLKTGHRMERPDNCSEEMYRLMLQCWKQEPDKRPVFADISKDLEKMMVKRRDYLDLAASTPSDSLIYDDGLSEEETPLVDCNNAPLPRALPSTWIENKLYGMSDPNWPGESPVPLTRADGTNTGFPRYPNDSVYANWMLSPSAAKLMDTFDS
BTK, sequence (Q06187 whole entry, species assumed): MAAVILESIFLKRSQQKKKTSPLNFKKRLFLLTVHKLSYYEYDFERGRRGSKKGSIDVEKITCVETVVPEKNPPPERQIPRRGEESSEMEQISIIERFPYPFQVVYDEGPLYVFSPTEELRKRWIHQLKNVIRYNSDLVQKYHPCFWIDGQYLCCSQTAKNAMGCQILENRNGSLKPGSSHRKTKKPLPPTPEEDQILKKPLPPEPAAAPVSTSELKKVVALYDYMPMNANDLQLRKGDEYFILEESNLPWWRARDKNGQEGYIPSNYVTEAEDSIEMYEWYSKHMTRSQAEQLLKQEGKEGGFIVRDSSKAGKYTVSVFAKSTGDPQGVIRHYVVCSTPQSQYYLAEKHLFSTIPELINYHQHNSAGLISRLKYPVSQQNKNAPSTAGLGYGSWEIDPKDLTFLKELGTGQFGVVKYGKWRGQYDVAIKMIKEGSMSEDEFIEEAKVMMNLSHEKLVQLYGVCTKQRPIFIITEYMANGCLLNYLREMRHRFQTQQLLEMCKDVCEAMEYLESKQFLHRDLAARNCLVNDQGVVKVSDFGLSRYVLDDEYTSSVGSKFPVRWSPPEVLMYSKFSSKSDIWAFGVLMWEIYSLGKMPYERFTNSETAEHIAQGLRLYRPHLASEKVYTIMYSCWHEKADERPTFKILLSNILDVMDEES

COc1cc2c(Nc3ccc(F)c(Cl)c3)ncnc2cc1OCCCCN(C)C [Compound 37, 4-(3-chloro-4-fluoroanilino)-6-methoxy-7-(4-(dimethylamino)-butoxy)quinazoline]
IC50 (HCC827): 0.0006 µM | IC50 (A431): 1.09 µM | IC50 (H292): 0.0396 µM | IC50 (PC-9): 0.0087 µM | IC50 (A375): 0.0782 µM | IC50 (HT-29): 2.5 µM | IC50 (TT): 0.134 µM | IC50 (HCT116): 0.562 µM | IC50 (SK-OV-3): 2.09 µM | IC50 (A549): 1.77 µM | IC50 (3T3swiss): 1.55 µM | IC50 (HUVEC): 0.0295 µM | IC50 (Bel-7402): 5.59 µM | IC50 (SGC7901): 4.02 µM | IC50 (CFPAC-1): 5.86 µM | IC50 (A498): 2.16 µM | IC50 (Eca109): 5.75 µM | IC50 (RET): 0.0158 µM | IC50 (KDR): 0.0159 µM | IC50 (FLT-1): 0.0304 µM | IC50 (FGFR-1): 0.0277 µM | IC50 (EGFR): 0.0985 µM | IC50 (PDGFRβ): 0.189 µM | IC50 (BTK): 0.312 µM | IC50 (AXL): 1.72 µM | MTD [1]: 250 to 500 mg/kg

COc1cc2c(Nc3ccc(F)c(Cl)c3)ncnc2cc1OCCCN(C)C [Compound 38, 4-(3-chloro-4-fluoroanilino)-6-methoxy-7-(3-(dimethylamino)-propoxy)quinazoline]
IC50 (HCC827): 0.0007 µM | IC50 (A431): 1.46 µM | IC50 (H292): 0.0452 µM | IC50 (PC-9): 0.0077 µM | IC50 (A375): 0.178 µM | IC50 (HT-29): 2.66 µM | IC50 (TT): 0.115 µM | IC50 (HCT116): 0.621 µM | IC50 (SK-OV-3): 2.06 µM | IC50 (A549): 2.36 µM | IC50 (3T3swiss): 1.56 µM | IC50 (HUVEC): 0.0265 µM | IC50 (Bel-7402): 5.94 µM | IC50 (SGC7901): 3.85 µM | IC50 (CFPAC-1): 5.79 µM | IC50 (A498): 2.26 µM | IC50 (Eca109): 5.93 µM | IC50 (RET): 0.0198 µM | IC50 (KDR): 0.0176 µM | IC50 (FLT-1): 0.0356 µM | IC50 (FGFR-1): 0.0289 µM | IC50 (EGFR): 0.101 µM | IC50 (PDGFRβ): 0.268 µM | IC50 (BTK): 0.325 µM | IC50 (AXL): 2.15 µM | MTD [1]: 125 to 250 mg/kg

COc1cc2c(Nc3ccc(F)c(Cl)c3)ncnc2cc1OCCCN1CCCC1 [Compound 39, 4-(3-chloro-4-fluoroanilino)-6-methoxy-7-(3-(pyrrolidin-1-yl)propoxy)quinazoline]
IC50 (HCC827): 0.0002 µM | IC50 (A431): 2.26 µM | IC50 (H292): 0.0457 µM | IC50 (PC-9): 0.0066 µM | IC50 (A375): 0.197 µM | IC50 (HT-29): 2.87 µM | IC50 (TT): 0.186 µM | IC50 (HCT116): 0.51 µM | IC50 (SK-OV-3): 1.32 µM | IC50 (A549): 2.66 µM | IC50 (3T3swiss): 1.75 µM | IC50 (HUVEC): 0.0188 µM | IC50 (Bel-7402): 5.66 µM | IC50 (SGC7901): 4.52 µM | IC50 (CFPAC-1): 5.25 µM | IC50 (A498): 2.31 µM | IC50 (Eca109): 5.75 µM | IC50 (RET): 0.0102 µM | IC50 (KDR): 0.0189 µM | IC50 (FLT-1): 0.0346 µM | IC50 (FGFR-1): 0.0196 µM | IC50 (EGFR): 0.121 µM | IC50 (PDGFRβ): 0.258 µM | IC50 (BTK): 0.297 µM | IC50 (AXL): 2.05 µM | MTD [1]: 62.5 to 125 mg/kg

COc1cc2c(Nc3ccc(F)c(Cl)c3)ncnc2cc1OCCCCN1CCCC1 [Compound 40, 4-(3-chloro-4-fluoroanilino)-6-methoxy-7-(4-(pyrrolidin-1-yl)butoxy)quinazoline]
IC50 (HCC827): 0.0001 µM | IC50 (A431): 1.56 µM | IC50 (H292): 0.0564 µM | IC50 (PC-9): 0.0078 µM | IC50 (A375): 0.247 µM | IC50 (HT-29): 2.33 µM | IC50 (TT): 0.093 µM | IC50 (HCT116): 0.605 µM | IC50 (SK-OV-3): 1.19 µM | IC50 (A549): 2.4 µM | IC50 (3T3swiss): 1.81 µM | IC50 (HUVEC): 0.0124 µM | IC50 (Bel-7402): 5.88 µM | IC50 (SGC7901): 3.69 µM | IC50 (CFPAC-1): 5.32 µM | IC50 (A498): 2.46 µM | IC50 (Eca109): 5.46 µM | IC50 (RET): 0.0173 µM | IC50 (KDR): 0.0187 µM | IC50 (FLT-1): 0.0398 µM | IC50 (FGFR-1): 0.0284 µM | IC50 (EGFR): 0.113 µM | IC50 (PDGFRβ): 0.241 µM | IC50 (BTK): 0.306 µM | IC50 (AXL): 1.99 µM | MTD [1]: 125 to 250 mg/kg
